Experimental data published in US6034136A, “Certain cyclic thio substituted acylaminoacid amide derivatives” (Novartis AG, priority 1998, dated 2000).

Legend:
Format in all cases: biochemical
[1] = target: T1, Human recombinant fibroblast collagenase (collagenase-1) (Homo sapiens, UniProt P03956); assay: Collagenase-1 inhibitory activity (bovine type I collagen digestion, Coomasie blue); conditions: 2 hours at 35° C., read-out: IC50 for inhibition of collagenase-1 activity
T1 sequence (P03956 100-469): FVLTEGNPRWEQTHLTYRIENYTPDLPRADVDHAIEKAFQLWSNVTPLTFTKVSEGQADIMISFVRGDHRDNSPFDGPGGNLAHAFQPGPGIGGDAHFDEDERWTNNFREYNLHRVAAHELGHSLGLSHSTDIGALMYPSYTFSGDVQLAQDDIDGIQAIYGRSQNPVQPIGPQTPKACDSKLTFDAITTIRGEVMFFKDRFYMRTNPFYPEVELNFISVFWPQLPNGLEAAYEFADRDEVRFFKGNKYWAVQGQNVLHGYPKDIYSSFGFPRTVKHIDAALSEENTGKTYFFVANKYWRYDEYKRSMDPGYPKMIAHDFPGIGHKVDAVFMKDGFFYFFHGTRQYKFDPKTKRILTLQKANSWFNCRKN
Procedure: Collagenase -1 inhibitory activity is determined as follows: ninety six-well, flat-bottom microtiter plates are first coated with bovine type I collagen (35 ug/well) over a two-day period at 30° C. using a humidified and then dry atmosphere; plates are rinsed, air dried for 3-4 hours, sealed with Saran wrap and stored in a refrigerator. Human recombinant fibroblast collagenase and a test compound (or buffer) are added to wells (total volume=0.1 ml) and plates are incubated for 2 hours at 35° C. under humidified conditions; the amount of collagenase used per well is that causing approximately 80% of maximal digestion of collagen. The incubation media are removed from the wells, which are then rinsed with buffer, followed by water. […] Sodium dodecyl sulfate (20% in 50% dimethylformamide in water) is added to solubilize the remaining stained collagen and the optical density at 570 nm wave length is measured. The decrease in optical density due to collagenase (from that of collagen without enzyme) is compared to the decrease in optical density due to the enzyme in the presence of test compound, and percent inhibition of enzyme activity is calculated. IC50 's are determined from a range of concentrations of inhibitors (4-5 concentrations, each tested in triplicate), and KI values are calculated. […]

collagenase-3 = collagenase-3 (Homo sapiens, UniProt P45452); assay: Collagenase-3 inhibitory activity (fluorescent substrate MCA-Pro-Leu-Gly-Dpa-Ala-Arg-NH2); conditions: room temperature, 10 minutes preincubation, fluorescence; read-out: IC50 for inhibition of collagenase-3 activity
Procedure: Collagenase-3 inhibitory activity is determined as follows:
[…] solutions of substrate (MCA-Pro-Leu-Gly-Dpa-Ala-Arg-NH2, J. Biol. Chem. 271, 1544-1550, 1996) and 10 nM stock solution of inhibitor are prepared in DMSO. They are diluted with assay buffer ([…] at pH 7.5 containing 10 mM CaCl2, 0.002% sodium azide) as needed. Recombinant pro-collagenase-3 is activated with 1 mM APMA, and stored in the assay buffer after extensive dialysis in the assay buffer. Recombinant enzyme solution (0.05 ml, 1.3 nM) is mixed with 0.05 mL of inhibitor solution at various concentrations for 10 minutes at room temperature. Then 0.025 mL of 8 μM substrate solution is added and fluorescence (λex=325; λem=405) is continuously measured at room temperature. The percent inhibition of collagenase-3 activity is determined from the effect of inhibitor at various concentrations on the change in fluorescence; the IC50 is determined graphically.
Compounds of formula I have an IC50 of about 5 nM to about 100 nM for inhibition of collagenase-3 activity.

[2] = target: recombinant human stromelysin (Homo sapiens, UniProt P08254); assay: inhibition of stromelysin activity (hydrolysis of Substance P, HPLC); conditions: Substance P substrate, 30 minutes at 37° C.
recombinant human stromelysin, sequence (P08254 100-477): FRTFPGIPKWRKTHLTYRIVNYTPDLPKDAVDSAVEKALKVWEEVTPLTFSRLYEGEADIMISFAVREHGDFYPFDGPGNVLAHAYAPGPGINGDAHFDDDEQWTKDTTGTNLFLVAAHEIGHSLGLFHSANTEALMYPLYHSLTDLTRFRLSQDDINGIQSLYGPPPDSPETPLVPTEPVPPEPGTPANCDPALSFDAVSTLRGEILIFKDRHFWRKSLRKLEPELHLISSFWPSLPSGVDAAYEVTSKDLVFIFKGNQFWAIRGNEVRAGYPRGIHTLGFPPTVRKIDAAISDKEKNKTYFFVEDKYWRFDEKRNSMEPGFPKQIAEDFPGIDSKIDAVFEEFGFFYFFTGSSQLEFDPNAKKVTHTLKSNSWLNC
Procedure: One test to determine the inhibition of stromelysin activity is based on its hydrolysis of Substance P using a modified procedure of Harrison et al (Harrison, R. A., Teahan J., and Stein R., A semicontinuous, high performance chromatography based assay for stromelysin, Anal. Biochem. 180, 110-113 (1989)). In this assay, Substance P is hydrolyzed by recombinant human stromelysin to generate a fragment, Substance P 7-11, which can be quantitated by HPLC. In a typical assay, a 10 mM stock solution of a compound to be tested is diluted in the assay buffer to 50 μM, mixed 1:1 with 8 μg recombinant human stromelysin (mol. wt. 45-47 kDa, 2 Units; where 1 Unit produces […] of Substance P 7-11 in 30 minutes) and incubated along with 0.5 mM Substance P in a final volume of 0.125 ml for 30 minutes at 37° C. The reaction is stopped by adding 10 mM EDTA and Substance P 7-11 is quantified on RP-8 HPLC. The IC50 for inhibition of stromelysin activity and Ki are calculated from control reaction without the inhibitor.
Compounds of formula I have an IC50 of about 10 nM to about 5 μM for inhibition of stromelysin activity.

With `CNC(=O)[C@H](Cc1ccccc1)NC(=O)C1(C(S)CCc2ccccc2)CCCCC1` (stereo partly drawn) [2(d), (S)-2-[N-(1-(1-mercapto-3-phenylpropyl)-cyclohexanecarbonyl)amino]-3-phenylpropionic acid N-methylamide] as the compound, how does the IC50 [1] read?
The IC50 was roughly 200 nM.

What about the IC50 (collagenase-3) of the same compound?
The IC50 was roughly 20 nM.

For `CCO[C@H]1CC[C@@](CS)(C(=O)N[C@@H](Cc2ccccc2)C(=O)Nc2ccccc2)CC1` [2(e), (S)-2-[N-(1-mercaptomethyl-cis-4-ethoxycyclohexanecarbonyl)amino]-3-phenylpropionic acid N-phenylamide], which IC50 [2] is on record?
The IC50 was roughly 70 nM.
